Literature values in patent publication US6395721B1, “Low potency unpreserved sterile topical corticosteroid compositions for dermatitis” (priority 2000, dated 2002).

Key:
skin of human volunteers = tested on: skin of human volunteers; set-up: key to Ranking of Topical steroids for Psoriasis (potency group): I: Group 1 is the most potent; potency descends with each group to Group VII; III: potency descends with each group to Group VII; IV: potency descends with each group to Group VII; potency descends with each group to Group VII; potency descends with each group to Group VII; Group VII, which is least potent; conditions: for potency rating of steroid compositions on a scale of 1 to 7, with 7 being the least potent: rating in words, Cornell and Stoughton; for potency of corticosteroid (in words): as worded for contemplated compositions, aldomethasone and desonide at 0.05%; for Ranking of Topical steroids for Psoriasis (potency group): no significant difference of agents within any given group
stripped skin = conditions: applied to stripped skin, which develops erythema

Row | Compound | potency rating of steroid compositions on a scale of 1 to 7, with 7 being the least potent (skin of human volunteers) | potency of corticosteroid (in words) (skin of human volunteers) | effect on erythema of stripped skin (stripped skin) | Ranking of Topical steroids for Psoriasis (potency group) (skin of human volunteers)
1 | C[C@H]1C[C@H]2[C@@H]3CCC4=CC(=O)C=C[C@]4(C)[C@@]3(F)[C@@H](O)C[C@]2(C)[C@@]1(O)C(=O)CCl [Clobetasol] | among the most potent steroids | – | – | –
2 | C[C@]12CCC(=O)C=C1CC[C@@H]1[C@@H]2C(=O)C[C@@]2(C)[C@H]1CC[C@]2(O)C(=O)CO [cortisone] | Among the least potent steroids | – | – | –
3 | CC1(C)O[C@@H]2C[C@H]3[C@@H]4CCC5=CC(=O)C=C[C@]5(C)[C@H]4[C@@H](O)C[C@]3(C)[C@]2(C(=O)CO)O1 [desonide] | Among the least potent steroids | intermediate potency | – | –
4 | CCCC(=O)O[C@]1(C(=O)CO)CC[C@H]2[C@@H]3CCC4=CC(=O)CC[C@]4(C)[C@H]3[C@@H](O)C[C@@]21C [hydrocortisone butyrate] | Among the least potent steroids | – | – | –
5 | CCCCC(=O)O[C@]1(C(=O)CO)CC[C@H]2[C@@H]3CCC4=CC(=O)CC[C@]4(C)[C@H]3[C@@H](O)C[C@@]21C [hydrocortisone valerate] | Among the least potent steroids | – | – | –
6 | C[C@]12CCC(=O)C=C1CC[C@@H]1[C@@H]2[C@@H](O)C[C@@]2(C)[C@H]1CC[C@]2(O)C(=O)CO [hydrocortisone] | Among the least potent steroids | – | develop blanching | VII.
7 | C[C@]12C=CC(=O)C=C1CC[C@@H]1[C@@H]2[C@@H](O)C[C@@]2(C)[C@H]1CC[C@]2(O)C(=O)CO [prednisolone] | – | – | – | VII.
8 | aldomethasone | – | low potency | – | –
9 | aldomethasone diproprionate | Among the least potent steroids | low potency | – | –
10 | flumethalone | – | – | – | VII.
